These results are taken from US9738652B2, “Spiro urea compounds as RSV antiviral compounds” (priority 2014, dated 2017).

One series has as its system rgRSV224 virus. In words: Antiviral activity: rgRSV224 (GFP) replication in HeLa cells. Particulars: human respiratory syncytial virus, 72 h, read-out: RSV HELA pEC50 (converted).
Series [1] is described as follows: Cytotoxicity in HeLa cells (ATPlite, CC50) used for selectivity index. Particulars: human.
Description: The wells contain 0.05% DMSO per volume. Cells were incubated at 37° C. in a 5% CO2 atmosphere. […] In parallel, compounds were incubated for three days in a set of white 384-well microtiter plates (Corning) and the cytotoxicity of compounds in HeLa cells was determined by measuring the ATP content of the cells using the ATPlite kit (Perkin Elmer, Zaventem, Belgium) according to the manufacturer's instructions. The CC50 was defined as the 50% concentration for cytotoxicity.

Description for rgRSV224 virus: Black 384-well clear-bottom microtiter plates (Corning, Amsterdam, The Netherlands) were filled via acoustic drop ejection using the echo liquid handler (Labcyte, Sunnyvale, Calif.). 200 nL of compound stock solutions (100% DMSO) were transferred to the assay plates. 9 serial 4-fold dilutions of compound were made, creating per quadrant the same compound concentration. The assay was initiated by adding 10 μL of culture medium to each well (RPMI medium without phenol red, 10% FBS-heat inactivated, 0.04% gentamycin (50 mg/mL). All addition steps are done by using a multidrop dispenser (Thermo Scientific, Erembodegem, Belgium). Next, rgRSV224 virus (MOI=1) diluted in culture medium was added to the plates. rgRSV224 virus is an engineered virus that includes an additional GFP gene (Hallak L K, Spillmann D, Collins P L, Peeples M E. Glycosaminoglycan sulfation requirements for respiratory syncytial virus infection; Journal of virology (2000), 74(22), 10508-13) and was in-licensed from the NIH (Bethesda, Md., USA). Finally, 20 μL of a HeLa cell suspension (3,000 cells/well) were plated. Medium, virus- and mock-infected controls were included in each test. The wells contain 0.05% DMSO per volume. Cells were incubated at 37° C. in a 5% CO2 atmosphere. Three days post-virus exposure, viral replication was quantified by measuring GFP expression in the cells by an in house developed MSM laser microscope (Tibotec, Beerse, Belgium). The EC50 was defined as the 50% inhibitory concentration for GFP expression. In parallel, compounds were incubated for three days in a set of white 384-well microtiter plates (Corning) and the cytotoxicity of compounds in HeLa cells was determined by measuring the ATP content of the cells using the ATPlite kit (Perkin Elmer, Zaventem, Belgium) according to the manufacturer's instructions. The CC50 was defined as the 50% concentration for cytotoxicity.

In turn, `CNC(=O)N1CCC2(CC1)C(=O)N(Cc1nc3cc(Cl)ccc3n1CCCC#N)c1cnccc12` [Co. No. 26, 1′-[[5-chloro-1-(3-cyanopropyl)benzimidazol-2-yl]methyl]-N-methyl-2′-oxo-spiro[piperidine-4,3′-pyrrolo[2,3-c]pyridine]-1-carboxamide] showed a melting point of 99.81 °C. In the series with rgRSV224 virus, the EC50 was 0.055 nM. For the same molecule, the selectivity ratio at 3 days in series [1] is greater than 1.82e+06.

Regarding `O=C(NC1CC(O)C1)N1CC2(C1)C(=O)N(Cc1nc3nc(Cl)ccc3n1CCCC(F)(F)F)c1ccccc12` (stereo not drawn) [Co. No. 24, 1′[[5-chloro-1-(4,4,4-trifluorobutyl)imidazo[4,5-b]pyridin-2-yl]methyl]-N-(3-hydroxycyclobutyl)-2′-oxo-spiro[azetidine-3,3′-indoline]-1-carboxamide], the EC50 in the series with rgRSV224 virus is 1.32 nM. The selectivity ratio at 3 days in series [1] is greater than 75400.

With `CN(C)CCN(C)C(=O)N1CC2(C1)C(=O)N(Cc1cc3cc(Cl)ccc3n1CCCS(C)(=O)=O)c1ccccc12` [Co. No. 15, 1′-[[5-chloro-1-(3-methylsulfonylpropyl)indol-2-yl]methyl]-N-[2-(dimethylamino)ethyl]-N-methyl-2′-oxo-spiro[azetidine-3,3′-indoline]-1-carboxamide], the EC50 in the series with rgRSV224 virus was 7.59 nM. The selectivity ratio at 3 days in series [1] was found to be 2570.

For the molecule `CS(=O)(=O)CCCn1c(CN2C(=O)C3(CN(C(=O)N[C@H]4C[C@@H](O)C4)C3)c3ccccc32)cc2cc(Cl)ccc21` [Co. No. 10, 1′-[[5-chloro-1-(3-methylsulfonylpropyl)indol-2-yl]methyl]-N-(cis-3-hydroxycyclobutyl)-2′-oxo-spiro[azetidine-3,3′-indoline]-1-carboxamide], the EC50 with rgRSV224 virus was less than 0.17 nM. In series [1], the selectivity ratio at 3 days is greater than 505000.

Usually melting point stands for the temperature, or range, at which the solid turns liquid.
